{"source": "ChEMBL document CHEMBL4028801", "about": "“A multifactorial approach to hepatobiliary transporter assessment enables improved therapeutic compound development” (Toxicol Sci, 2013)", "key": {"[1]": {"molecular_target": "ATP-binding cassette sub-family C member 3 (Homo sapiens, UniProt O15438)", "sequence (O15438 whole entry)": "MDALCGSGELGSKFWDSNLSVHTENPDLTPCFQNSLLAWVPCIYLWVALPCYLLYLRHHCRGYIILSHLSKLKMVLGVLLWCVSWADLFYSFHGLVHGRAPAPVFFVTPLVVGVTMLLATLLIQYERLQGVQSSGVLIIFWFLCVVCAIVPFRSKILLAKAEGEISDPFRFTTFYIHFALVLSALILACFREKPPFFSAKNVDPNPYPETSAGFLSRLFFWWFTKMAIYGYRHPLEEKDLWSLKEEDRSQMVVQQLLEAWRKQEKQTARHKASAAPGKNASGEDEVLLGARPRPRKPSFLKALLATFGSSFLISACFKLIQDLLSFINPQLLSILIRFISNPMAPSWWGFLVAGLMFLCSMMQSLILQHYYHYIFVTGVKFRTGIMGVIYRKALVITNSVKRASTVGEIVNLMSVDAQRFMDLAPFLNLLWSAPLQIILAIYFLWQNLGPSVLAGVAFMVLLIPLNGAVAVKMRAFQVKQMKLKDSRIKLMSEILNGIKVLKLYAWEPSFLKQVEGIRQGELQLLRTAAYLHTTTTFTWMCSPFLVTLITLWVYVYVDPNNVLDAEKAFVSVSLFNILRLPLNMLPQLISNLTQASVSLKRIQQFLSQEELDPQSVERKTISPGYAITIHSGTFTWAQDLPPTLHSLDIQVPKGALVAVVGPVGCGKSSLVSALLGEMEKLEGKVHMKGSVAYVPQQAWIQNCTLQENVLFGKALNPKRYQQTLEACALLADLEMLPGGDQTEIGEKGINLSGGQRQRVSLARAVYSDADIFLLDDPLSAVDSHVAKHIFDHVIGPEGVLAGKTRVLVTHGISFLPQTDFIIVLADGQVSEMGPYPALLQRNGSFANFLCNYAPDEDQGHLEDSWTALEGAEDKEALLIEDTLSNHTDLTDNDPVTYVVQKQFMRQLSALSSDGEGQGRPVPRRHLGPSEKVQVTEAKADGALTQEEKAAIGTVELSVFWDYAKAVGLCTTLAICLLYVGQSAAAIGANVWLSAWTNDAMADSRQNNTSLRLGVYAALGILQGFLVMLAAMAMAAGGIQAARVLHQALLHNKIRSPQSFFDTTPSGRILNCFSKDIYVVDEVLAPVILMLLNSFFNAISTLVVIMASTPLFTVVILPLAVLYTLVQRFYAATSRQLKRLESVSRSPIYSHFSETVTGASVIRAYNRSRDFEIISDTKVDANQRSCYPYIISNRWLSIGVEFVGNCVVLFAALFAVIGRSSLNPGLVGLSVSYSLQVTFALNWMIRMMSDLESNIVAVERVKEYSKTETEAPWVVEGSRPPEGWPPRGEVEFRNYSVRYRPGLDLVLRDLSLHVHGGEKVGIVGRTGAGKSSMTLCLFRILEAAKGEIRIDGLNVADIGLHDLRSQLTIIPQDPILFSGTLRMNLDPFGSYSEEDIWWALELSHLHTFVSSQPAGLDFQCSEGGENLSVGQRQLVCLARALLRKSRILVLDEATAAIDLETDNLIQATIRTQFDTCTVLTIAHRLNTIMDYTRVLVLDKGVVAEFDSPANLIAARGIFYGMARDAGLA", "experiment": "Inhibition of human MRP3 overexpressed in Sf9 insect cell membrane vesicles assessed as uptake of [3H]-estradiol-17beta-D-glucuronide in presence of ATP and GSH measured after 10 mins by membrane vesicle transport assay", "assay_type": "ADME, cell-based"}, "[2]": {"molecular_target": "T1, ATP-binding cassette sub-family C member 4 (Homo sapiens, UniProt O15439)", "T1 sequence (O15439 whole entry)": "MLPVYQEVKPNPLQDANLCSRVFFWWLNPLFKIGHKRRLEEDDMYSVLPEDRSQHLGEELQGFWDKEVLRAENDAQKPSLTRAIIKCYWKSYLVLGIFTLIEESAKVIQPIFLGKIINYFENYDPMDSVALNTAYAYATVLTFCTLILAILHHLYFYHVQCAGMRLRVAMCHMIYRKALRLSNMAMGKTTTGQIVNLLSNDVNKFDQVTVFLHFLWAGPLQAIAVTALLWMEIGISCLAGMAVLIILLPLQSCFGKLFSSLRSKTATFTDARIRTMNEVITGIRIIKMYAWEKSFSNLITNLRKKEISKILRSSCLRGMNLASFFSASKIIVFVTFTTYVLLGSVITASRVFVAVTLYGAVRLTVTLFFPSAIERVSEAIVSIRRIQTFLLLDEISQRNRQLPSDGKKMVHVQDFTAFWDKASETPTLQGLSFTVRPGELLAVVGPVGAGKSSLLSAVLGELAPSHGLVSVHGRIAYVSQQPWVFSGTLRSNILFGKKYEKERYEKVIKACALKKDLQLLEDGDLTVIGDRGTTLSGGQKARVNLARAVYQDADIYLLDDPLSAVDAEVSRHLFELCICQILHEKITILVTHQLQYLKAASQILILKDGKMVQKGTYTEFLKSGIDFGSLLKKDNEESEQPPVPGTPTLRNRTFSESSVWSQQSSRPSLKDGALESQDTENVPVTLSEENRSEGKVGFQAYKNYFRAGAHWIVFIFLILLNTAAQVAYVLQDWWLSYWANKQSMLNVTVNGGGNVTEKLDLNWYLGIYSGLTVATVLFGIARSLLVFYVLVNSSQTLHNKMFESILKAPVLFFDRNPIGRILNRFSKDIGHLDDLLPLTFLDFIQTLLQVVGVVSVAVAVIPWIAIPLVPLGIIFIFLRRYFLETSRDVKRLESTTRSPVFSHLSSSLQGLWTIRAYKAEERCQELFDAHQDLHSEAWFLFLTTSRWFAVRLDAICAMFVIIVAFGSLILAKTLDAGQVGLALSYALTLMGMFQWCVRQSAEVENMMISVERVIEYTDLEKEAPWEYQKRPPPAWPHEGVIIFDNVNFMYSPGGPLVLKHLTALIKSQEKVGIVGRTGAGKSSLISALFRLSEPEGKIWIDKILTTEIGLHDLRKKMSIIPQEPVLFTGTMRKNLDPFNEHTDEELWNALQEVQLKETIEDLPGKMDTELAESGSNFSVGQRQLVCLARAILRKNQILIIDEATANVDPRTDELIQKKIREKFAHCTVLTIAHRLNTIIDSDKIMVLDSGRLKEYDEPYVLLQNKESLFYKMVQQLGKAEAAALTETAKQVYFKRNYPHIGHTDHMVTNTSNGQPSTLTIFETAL", "experiment": "Inhibition of human MRP4 overexpressed in Sf9 cell membrane vesicles assessed as uptake of [3H]-estradiol-17beta-D-glucuronide in presence of ATP and GSH measured after 20 mins by membrane vesicle transport assay", "assay_type": "ADME, cell-based"}, "[3]": {"experiment": "AUC in human at 1 to 4 mg, po QD after 24 hrs", "assay_type": "ADME, organism-based", "conditions": "in vivo"}, "[4]": {"experiment": "Drug concentration at steady state in human at 1 to 4 mg, po QD after 24 hrs", "assay_type": "ADME, organism-based", "conditions": "in vivo, read-out: Css"}, "[5]": {"experiment": "Ratio of drug concentration at steady state in human at 1 to 4 mg, po QD after 24 hrs to IC50 for human BSEP overexpressed in Sf9 insect cells", "assay_type": "ADME, organism-based", "conditions": "in vivo"}, "[6]": {"experiment": "Ratio of drug concentration at steady state in human at 1 to 4 mg, po QD after 24 hrs to IC50 for human MRP3 overexpressed in Sf9 insect cells", "assay_type": "ADME, organism-based", "conditions": "in vivo"}, "[7]": {"experiment": "Ratio of drug concentration at steady state in human at 1 to 4 mg, po QD after 24 hrs to IC50 for human MRP4 overexpressed in Sf9 insect cells", "assay_type": "ADME, organism-based", "conditions": "in vivo"}, "Bile salt export pump": {"molecular_target": "Bile salt export pump (Homo sapiens, UniProt O95342)", "sequence (O95342 whole entry)": "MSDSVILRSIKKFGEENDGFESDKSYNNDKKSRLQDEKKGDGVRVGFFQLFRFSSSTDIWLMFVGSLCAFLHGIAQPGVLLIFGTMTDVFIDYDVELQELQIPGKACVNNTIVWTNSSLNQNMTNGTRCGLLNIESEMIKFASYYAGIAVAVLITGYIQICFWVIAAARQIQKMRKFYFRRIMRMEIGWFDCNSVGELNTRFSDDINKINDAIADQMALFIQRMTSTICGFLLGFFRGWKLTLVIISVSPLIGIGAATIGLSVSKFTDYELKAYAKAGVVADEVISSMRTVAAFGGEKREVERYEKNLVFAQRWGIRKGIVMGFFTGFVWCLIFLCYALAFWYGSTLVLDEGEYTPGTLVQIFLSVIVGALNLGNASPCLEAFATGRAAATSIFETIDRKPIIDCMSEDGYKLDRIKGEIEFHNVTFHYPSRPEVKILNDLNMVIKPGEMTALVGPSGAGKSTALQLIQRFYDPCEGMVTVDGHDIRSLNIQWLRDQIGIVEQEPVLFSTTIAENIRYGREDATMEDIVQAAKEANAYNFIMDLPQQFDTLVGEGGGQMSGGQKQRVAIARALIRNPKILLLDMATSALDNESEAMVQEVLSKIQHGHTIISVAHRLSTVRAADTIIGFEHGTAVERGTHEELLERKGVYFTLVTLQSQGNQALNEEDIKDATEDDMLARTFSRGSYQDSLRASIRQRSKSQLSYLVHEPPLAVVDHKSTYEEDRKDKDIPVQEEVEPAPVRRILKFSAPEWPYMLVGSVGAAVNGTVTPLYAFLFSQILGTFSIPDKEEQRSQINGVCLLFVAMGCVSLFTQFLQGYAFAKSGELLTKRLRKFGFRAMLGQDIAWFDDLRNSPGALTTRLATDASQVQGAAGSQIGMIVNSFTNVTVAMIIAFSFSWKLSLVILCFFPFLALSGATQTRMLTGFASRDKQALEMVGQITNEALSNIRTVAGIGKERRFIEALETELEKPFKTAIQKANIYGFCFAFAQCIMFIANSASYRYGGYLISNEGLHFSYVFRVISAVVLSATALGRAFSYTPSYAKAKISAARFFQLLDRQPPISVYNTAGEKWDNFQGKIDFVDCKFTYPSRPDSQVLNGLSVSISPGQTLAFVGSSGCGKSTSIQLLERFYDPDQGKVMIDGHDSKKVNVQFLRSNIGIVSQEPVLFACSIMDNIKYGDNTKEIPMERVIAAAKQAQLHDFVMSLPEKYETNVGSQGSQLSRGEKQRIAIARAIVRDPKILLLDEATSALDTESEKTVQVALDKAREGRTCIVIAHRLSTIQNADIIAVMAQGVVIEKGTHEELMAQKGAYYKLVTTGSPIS", "experiment": "Inhibition of human BSEP overexpressed in Sf9 cell membrane vesicles assessed as uptake of [3H]-taurocholate in presence of ATP measured after 15 to 20 mins by membrane vesicle transport assay", "assay_type": "ADME, cell-based"}, "[8]": {"molecular_target": "ATP-binding cassette sub-family C member 2 (Homo sapiens, UniProt Q92887)", "sequence (Q92887 whole entry)": "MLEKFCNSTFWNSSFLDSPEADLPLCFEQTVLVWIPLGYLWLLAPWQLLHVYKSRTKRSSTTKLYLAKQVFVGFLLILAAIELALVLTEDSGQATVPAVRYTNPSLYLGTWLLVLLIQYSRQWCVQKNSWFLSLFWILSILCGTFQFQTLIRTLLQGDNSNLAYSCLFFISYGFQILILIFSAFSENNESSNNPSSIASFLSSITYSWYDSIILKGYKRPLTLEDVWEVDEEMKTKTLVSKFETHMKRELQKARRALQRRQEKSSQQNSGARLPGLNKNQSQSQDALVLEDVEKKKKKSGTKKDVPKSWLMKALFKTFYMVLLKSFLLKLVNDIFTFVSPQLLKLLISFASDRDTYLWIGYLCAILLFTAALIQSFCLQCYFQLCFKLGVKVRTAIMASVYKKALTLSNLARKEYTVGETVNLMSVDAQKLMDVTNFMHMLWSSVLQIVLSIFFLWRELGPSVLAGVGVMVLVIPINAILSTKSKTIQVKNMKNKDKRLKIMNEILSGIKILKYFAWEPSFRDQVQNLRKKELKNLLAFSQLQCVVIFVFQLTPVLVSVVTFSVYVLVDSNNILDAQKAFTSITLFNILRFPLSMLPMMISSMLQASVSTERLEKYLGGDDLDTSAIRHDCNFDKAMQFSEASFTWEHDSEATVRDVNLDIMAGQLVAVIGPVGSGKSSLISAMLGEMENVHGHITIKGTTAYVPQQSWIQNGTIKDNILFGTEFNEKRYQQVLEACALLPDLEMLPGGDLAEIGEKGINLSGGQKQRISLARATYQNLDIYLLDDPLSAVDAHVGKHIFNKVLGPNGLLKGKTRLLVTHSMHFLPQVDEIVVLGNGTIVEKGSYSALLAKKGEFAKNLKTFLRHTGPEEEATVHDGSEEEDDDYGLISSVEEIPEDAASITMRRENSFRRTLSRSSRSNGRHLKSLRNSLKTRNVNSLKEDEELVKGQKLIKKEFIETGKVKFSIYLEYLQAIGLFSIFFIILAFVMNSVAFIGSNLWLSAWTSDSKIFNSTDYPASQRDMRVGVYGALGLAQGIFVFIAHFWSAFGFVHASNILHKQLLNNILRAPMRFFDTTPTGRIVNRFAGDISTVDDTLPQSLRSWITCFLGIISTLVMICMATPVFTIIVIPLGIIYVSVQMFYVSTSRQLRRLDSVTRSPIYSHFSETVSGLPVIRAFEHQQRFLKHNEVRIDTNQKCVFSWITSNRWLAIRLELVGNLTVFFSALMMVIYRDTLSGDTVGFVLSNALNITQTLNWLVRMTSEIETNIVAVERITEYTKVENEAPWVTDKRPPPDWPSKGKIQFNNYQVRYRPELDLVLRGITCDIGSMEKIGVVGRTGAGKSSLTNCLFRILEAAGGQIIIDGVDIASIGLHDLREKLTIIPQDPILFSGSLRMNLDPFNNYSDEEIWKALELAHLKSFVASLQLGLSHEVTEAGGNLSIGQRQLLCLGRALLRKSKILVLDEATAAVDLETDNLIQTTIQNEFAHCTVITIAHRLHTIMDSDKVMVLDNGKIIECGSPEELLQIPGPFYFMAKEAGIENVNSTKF", "experiment": "Inhibition of human MRP2 overexpressed in Sf9 cell membrane vesicles assessed as uptake of [3H]-estradiol-17beta-D-glucuronide in presence of ATP and GSH measured after 20 mins by membrane vesicle transport assay"}, "[9]": {"experiment": "AUC in human at 0.25 mg, sc QD after 24 hrs", "assay_type": "ADME, organism-based", "set-up": "dose 0.25 mg, time < 24 hr, route subcutaneous", "conditions": "in vivo"}, "[10]": {"experiment": "AUC in human at 3 mg, sc administered as single dose during early to mild follicular phase after 24 hrs", "assay_type": "ADME, organism-based", "set-up": "dose 3 mg, time < 24 hr, route subcutaneous", "conditions": "female, in vivo"}, "[11]": {"experiment": "Drug concentration at steady state in human at 0.25 mg, sc QD after 24 hrs", "assay_type": "ADME, organism-based", "conditions": "in vivo, read-out: Css"}, "Homo sapiens [12]": {"system": "Homo sapiens", "experiment": "Drug concentration at steady state in human 3 mg, sc administered as single dose during early to mild follicular phase after 24 hrs", "assay_type": "ADME, organism-based", "conditions": "in vivo"}, "Homo sapiens [13]": {"system": "Homo sapiens", "experiment": "Ratio of drug concentration at steady state in human at 0.25 mg, sc QD after 24 hrs to IC50 for human BSEP overexpressed in Sf9 insect cells", "assay_type": "ADME, organism-based", "conditions": "in vivo"}, "Homo sapiens [14]": {"system": "Homo sapiens", "experiment": "Ratio of drug concentration at steady state in human at 3 mg, sc administered as single dose during early to mild follicular phase after 24 hrs to IC50 for human BSEP overexpressed in Sf9 insect cells", "assay_type": "ADME, organism-based", "conditions": "in vivo"}, "[15]": {"experiment": "AUC in human at 3 mg, po QD after 24 hrs", "assay_type": "ADME, organism-based", "set-up": "time < 24 hr, dose 3 mg, route oral", "conditions": "in vivo"}, "[16]": {"experiment": "Drug concentration at steady state in human at 3 mg, po QD after 24 hrs", "assay_type": "ADME, organism-based", "conditions": "in vivo, read-out: Css"}, "[17]": {"experiment": "Ratio of drug concentration at steady state in human at 3 mg, po after 24 hrs to IC50 for human BSEP overexpressed in Sf9 insect cells", "assay_type": "ADME, organism-based", "conditions": "in vivo"}, "[18]": {"experiment": "Ratio of drug concentration at steady state in human at 3 mg, po after 24 hrs to IC50 for human MRP4 overexpressed in Sf9 insect cells", "assay_type": "ADME, organism-based", "conditions": "in vivo"}, "[19]": {"experiment": "AUC in human at 5 to 10 mg, po after 24 hrs", "assay_type": "ADME, organism-based", "conditions": "in vivo"}, "Homo sapiens [20]": {"system": "Homo sapiens", "experiment": "Drug concentration at steady state in human at 5 to 10 mg, po after 24 hrs", "conditions": "in vivo"}}, "note": "pIC50: −log10 of the molar value. Non-standard residues stand in square brackets, D forms with d. Residues, ends and D or L forms follow the SMILES beside them. dPhe(4-Cl) = N[C@H](Cc1ccc(Cl)cc1)C(=O)O; d2Nal = N[C@H](Cc1ccc2ccccc2c1)C(=O)O; dCit = NC(=O)NCCC[C@@H](N)C(=O)O; d3Pal = N[C@H](Cc1cccnc1)C(=O)O", "data": [{"smiles": "CCC1=C(C)CN(C(=O)NCCc2ccc(S(=O)(=O)NC(=O)N[C@H]3CC[C@H](C)CC3)cc2)C1=O", "note": "[GLIMEPIRIDE]", "values": [{"measurement": "pIC50", "setting": "[1]", "value": 5.19}, {"measurement": "pIC50", "setting": "[2]", "value": 4.19}, {"measurement": "AUC at 24 h", "setting": "[3]", "value": 3.4, "unit": "µM·h"}, {"measurement": "concentration at 24 h", "setting": "[4]", "value": 141, "unit": "nM"}, {"measurement": "Ratio", "setting": "[5]", "value": 0.009}, {"measurement": "Ratio", "setting": "[6]", "value": 0.022}, {"measurement": "Ratio", "setting": "[7]", "value": 0.002}]}, {"smiles": "CC(=O)N[C@H](Cc1ccc2ccccc2c1)C(=O)N[C@H](Cc1ccc(Cl)cc1)C(=O)N[C@H](Cc1cccnc1)C(=O)N[C@@H](CO)C(=O)N[C@@H](Cc1ccc(O)cc1)C(=O)N[C@H](CCCNC(N)=O)C(=O)N[C@@H](CC(C)C)C(=O)N[C@@H](CCCNC(=N)N)C(=O)N1CCC[C@H]1C(=O)N[C@H](C)C(N)=O.CC(=O)O", "note": "[CETRORELIX ACETATE] (Ac-[d2Nal][dPhe(4-Cl)][d3Pal]SY[dCit]LRP[dA]-NH2)", "values": [{"measurement": "pIC50", "setting": "Bile salt export pump", "value": 5.83}, {"measurement": "pIC50", "setting": "[8]", "value": "< 3.88"}, {"measurement": "pIC50", "setting": "[1]", "value": "< 3.88"}, {"measurement": "pIC50", "setting": "[2]", "value": "< 3.88"}, {"measurement": "AUC at 24 h", "setting": "[9]", "value": 0.375, "unit": "µM·h"}, {"measurement": "AUC at 24 h", "setting": "[10]", "value": 0.375, "unit": "µM·h"}, {"measurement": "concentration at 24 h", "setting": "[11]", "value": 16, "unit": "nM"}, {"measurement": "Css", "setting": "Homo sapiens [12]", "value": 16, "unit": "nM"}, {"measurement": "Ratio", "setting": "Homo sapiens [13]", "value": 0.011}, {"measurement": "Ratio", "setting": "Homo sapiens [14]", "value": 0.011}]}, {"smiles": "C[C@]12CCC(=O)C=C1[C@@H]1C[C@@H]1[C@H]1[C@@H]3[C@@H]4C[C@@H]4[C@@]4(CCC(=O)O4)[C@@]3(C)CC[C@@H]12", "note": "[DROSPIRENONE]", "values": [{"measurement": "pIC50", "setting": "Bile salt export pump", "value": 4.79}, {"measurement": "pIC50", "setting": "[1]", "value": "< 3.88"}, {"measurement": "pIC50", "setting": "[2]", "value": 4.42}, {"measurement": "AUC at 24 h", "setting": "[15]", "value": 2.18, "unit": "µM·h"}, {"measurement": "concentration at 24 h", "setting": "[16]", "value": 91, "unit": "nM"}, {"measurement": "Ratio", "setting": "[17]", "value": 0.006}, {"measurement": "Ratio", "setting": "[18]", "value": 0.002}]}, {"smiles": "COc1cc2c(cc1OC)C(=O)C(CC1CCN(Cc3ccccc3)CC1)C2", "note": "(centres undefined) [DONEPEZIL]", "values": [{"measurement": "pIC50", "setting": "[8]", "value": "< 3.88"}, {"measurement": "pIC50", "setting": "[1]", "value": "< 3.88"}, {"measurement": "pIC50", "setting": "[2]", "value": 4.14}, {"measurement": "AUC at 24 h", "setting": "[19]", "value": 9.76, "unit": "µM·h"}, {"measurement": "Css", "setting": "Homo sapiens [20]", "value": 406, "unit": "nM"}]}]}
